{"source": "patent US20260274829A1", "about": "“NEW E3 UBIQUITIN LIGASE LIGAND, PROTEIN DEGRADATION AGENT AND USE THEREOF” (GLUETACS THERAPEUTICS (SHANGHAI) CO., LTD., priority 2023, published 2026)"}
{"target": "T1, human Cereblon WT GST-tagged protein (Homo sapiens, UniProt Q96SW2)", "T1 construct": "purchased CISBIO 64BDCRBNPEH", "T1 sequence (Q96SW2 whole entry)": "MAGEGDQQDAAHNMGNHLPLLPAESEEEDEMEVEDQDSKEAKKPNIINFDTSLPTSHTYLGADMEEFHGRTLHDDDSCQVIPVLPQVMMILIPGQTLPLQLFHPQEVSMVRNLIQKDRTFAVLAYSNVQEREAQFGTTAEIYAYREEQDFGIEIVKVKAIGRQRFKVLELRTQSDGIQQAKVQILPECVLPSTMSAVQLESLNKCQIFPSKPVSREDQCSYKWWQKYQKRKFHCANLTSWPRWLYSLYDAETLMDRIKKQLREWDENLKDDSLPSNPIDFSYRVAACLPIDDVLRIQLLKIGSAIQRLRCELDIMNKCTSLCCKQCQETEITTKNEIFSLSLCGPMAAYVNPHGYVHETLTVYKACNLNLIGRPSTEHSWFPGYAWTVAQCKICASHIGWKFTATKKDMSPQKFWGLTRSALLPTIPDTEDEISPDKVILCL", "assay": "CRBN binding, HTRF CEREBLON BINDING kit", "conditions": "CRBN binding, HTRF CEREBLON BINDING kit", "experimental": "The CEREBLON BINDING kits (specification: 10,000 tests; product number: Catalog #64BDCRBNPEH; CISBIO company) was used to determine the CRBN binding ability of the compounds to be tested through a HTRF method (homogeneous time-resolved fluorescence). The specific methods are as follows: • 1. […] Then, 2.5 μL of human Cereblon WT GST-tagged protein solution was added to each well. Finally, 5 μL of the thoroughly mixed Thalidomide-Re reagent and GST Eu antibody working solution were added to each of the aforementioned wells. […] The blank control wells were sequentially added with 2.5 μL of diluent #9 (1×) solution, 2.5 μL of binding buffer, and 5 μL of thoroughly mixed Thalidomide-Re reagent and GST Eu antibody working solution. • 4. After sealing and incubating the solutions in the aforementioned wells at room temperature for 3 hours, the absorbance values at emission wavelengths of 620 nm and 665 nm were detected by the HTRF method using a Spark microplate reader (V3.1 SP1).\nThe corresponding CRBN binding inhibition rate was calculated using the following method:\n[formula] [formula] [formula] • Note: OD 665 nmcompound is the absorbance value of each well of the compounds to be tested of the present disclosure at an emission wavelength of 665 nm. • OD 620 nmcompound is the absorbance value of each well of the compounds to be tested of the present disclosure at an emission wavelength of 620 nm. • OD 665 nmcontrol is the absorbance value of the blank control well at an emission wavelength of 665 nm. • OD 620 nmcontrol is the absorbance value of the blank control well at an emission wavelength of 620 nm. • OD 665 nmStd0 is the absorbance value of the solvent control well at an emission wavelength of 665 nm. • OD 620 nmStd0 is the absorbance value of the solvent control well at an emission wavelength of 620 nm.", "units": {"IC50": "nM"}}
{"smiles": "COC1CCN(c2nccc(Nc3cc4c(cn3)c(N3CCC(N(C)Cc5cccc(N6CCC(=O)NC6=O)c5)CC3)nn4C(C)C)n2)CC1", "note": "[GT-06122, 1-(3-(((1-(1-isopropyl-6-((2-(4-methoxypiperidin-1-yl)pyrimidin-4-yl)amino)-1H-pyrazolo[4,3-c]pyridin-3-yl)piperidin-4-yl)(methyl)amino)methyl)phenyl)dihydropyrimidine-2,4(1H,3H)-dione]", "IC50": "1000 to 1900"}
{"smiles": "O=C1CCC(c2ccc(CN3C[C@@H]4C[C@H]3CN4c3ccc(-c4cc(F)c5c(c4)C(=O)N(C(C(=O)Nc4nccs4)c4ncn6c4CCC6)C5)cc3)cc2)C(=O)N1", "note": "(stereo partly drawn) [GT-05115, 2-(6,7-dihydro-5H-pyrrolo[1,2-c]imidazol-1-yl)-2-(6-(4-((1S,4S)-5-(4-(2,6-dioxopiperidin-3-yl)benzyl)-2,5-diazabicyclo[2.2.1]heptan-2-yl)phenyl)-4-fluoro-1-oxoisoindolin-2-yl)-N-(thiazol-2-yl)acetamide]", "IC50": "500 to 1000"}
{"smiles": "COc1cc(N2CCC(N(C)Cc3ccc(N4CCC(=O)NC4=O)cn3)CC2)ccc1Nc1ncc(Cl)c(Nc2ccccc2P(C)(C)=O)n1", "note": "[GT-07617, 1-(6-(((1-(4-((5-chloro-4-((2-(dimethylphosphoryl)phenyl)amino)pyrimidin-2-yl)amino)-3-methoxyphenyl)piperidin-4-yl)(methyl)amino)methyl)pyridin-3-yl)dihydropyrimidine-2,4(1H,3H)-dione]", "IC50": "1000 to 1900"}
{"smiles": "O=C1CCC(c2ccc(CN3CCN(C4CCN(c5ccc(-c6cc(F)c7c(c6)C(=O)N(C(C(=O)Nc6nccs6)c6ncn8c6CCC8)C7)cc5)CC4(F)F)CC3)cc2)C(=O)N1", "note": "(stereo not shown) [GT-06317, 2-(6,7-dihydro-5H-pyrrolo[1,2-c]imidazol-1-yl)-2-(6-(4-(4-(4-(4-(2,6-dioxopiperidin-3-yl)benzyl)piperazin-1-yl)-3,3-difluoropiperidin-1-yl)phenyl)-4-fluoro-1-oxoisoindolin-2-yl)-N-(thiazol-2-yl)acetamide]", "IC50": "1000 to 1900"}
{"smiles": "COc1cc(N2CCC(N3CCN(Cc4cccc(NC5CCC(=O)NC5=O)c4)CC3)CC2)ccc1Nc1ncc(Cl)c(Nc2ccccc2P(C)(C)=O)n1", "note": "(stereo not shown) [GT-07605, 3-((3-((4-(1-(4-((5-chloro-4-((2-(dimethylphosphoryl)phenyl)amino)pyrimidin-2-yl)amino)-3-methoxyphenyl)piperidin-4-yl)piperazin-1-yl)methyl)phenyl)amino)piperidine-2,6-dione]", "IC50": "1000 to 1900"}
{"smiles": "COc1cc(N2CCC(N3CCN(Cc4ccc(C5CCC(=O)NC5=O)cc4)CC3)CC2)c(C)cc1Nc1ncc(Br)c(Nc2ccc3nccnc3c2P(C)(C)=O)n1", "note": "(stereo not shown) [GT-05999, 3-(4-((4-(1-(4-((5-bromo-4-((5-(dimethylphosphoryl)quinoxalin-6-yl)amino)pyrimidin-2-yl)amino)-5-methoxy-2-methylphenyl)piperidin-4-yl)piperazin-1-yl)methyl)phenyl)piperidine-2,6-dione]", "IC50": "1000 to 1900"}
{"smiles": "CC(=O)c1c(C)c2cnc(Nc3ccc(N4CCC(N5CCN(Cc6ccc(C7CCC(=O)NC7=O)cc6)CC5)CC4)cn3)nc2n(C2CCCC2)c1=O", "note": "(stereo not shown) [GT-06659, 3-(4-((4-(1-(6-((6-acetyl-8-cyclopentyl-5-methyl-7-oxo-7,8-dihydropyrido[2,3-d]pyrimidin-2-yl)amino)pyridin-3-yl)piperidin-4-yl)piperazin-1-yl)methyl)phenyl)piperidine-2,6-dione]", "IC50": "500 to 1000"}
{"smiles": "CC(=O)c1c(C)c2cnc(Nc3ccc(N4CCN(Cc5cccc(N6CCC(=O)NC6=O)c5)CC4)cn3)nc2n(C2CCCC2)c1=O", "note": "[GT-06577, 1-(3-((4-(6-((6-acetyl-8-cyclopentyl-5-methyl-7-oxo-7,8-dihydropyrido[2,3-d]pyrimidin-2-yl)amino)pyridin-3-yl)piperazin-1-yl)methyl)phenyl)dihydropyrimidine-2,4(1H,3H)-dione]", "IC50": "1000 to 1900"}
{"smiles": "O=C1CCN(c2ccc(CN3CCN(C4CCN(c5ccc(-c6cc(F)c7c(c6)C(=O)N(C(C(=O)Nc6nccs6)c6ncn8c6CCC8)C7)cc5)CC4(F)F)CC3)cc2)C(=O)N1", "note": "(stereo not shown) [GT-06318, 2-(6,7-dihydro-5H-pyrrolo[1,2-c]imidazol-1-yl)-2-(6-(4-(4-(4-(4-(2,4-dioxotetrahydropyrimidin-1(2H)-yl)benzyl)piperazin-1-yl)-3,3-difluoropiperidin-1-yl)phenyl)-4-fluoro-1-oxoisoindolin-2-yl)-N-(thiazol-2-yl)acetamide]", "IC50": "1000 to 1900"}
{"smiles": "Cn1cc(-c2cc(S(C)(=O)=O)ccc2OCc2ccc(N3CCC(=O)NC3=O)cn2)c2cc[nH]c2c1=O", "note": "[GT-06416, 1-(6-((2-(6-methyl-7-oxo-6,7-dihydro-1H-pyrrolo[2,3-c]pyridin-4-yl)-4-(methylsulfonyl)phenoxy)methyl)pyridin-3-yl)dihydropyrimidine-2,4(1H,3H)-dione]", "IC50": "1000 to 1900"}
{"smiles": "CN1CCN([C@@H]2CCCN(c3cnc(C(N)=O)c(Nc4ccc(C5CCN(Cc6ccc(N7CCC(=O)NC7=O)c(F)c6)CC5)cc4)n3)C2)C1=O", "note": "[GT-04801, (R)-3-((4-(1-(4-(2,4-dioxotetrahydropyrimidin-1(2H)-yl)-3-fluorobenzyl)piperidin-4-yl)phenyl)amino)-5-(3-(3-methyl-2-oxoimidazolidin-1-yl)piperidin-1-yl)pyrazine-2-carboxamide]", "IC50": "< 500"}
{"smiles": "O=C1CCC(Nc2cccc(CN3CCN(C4CCN(c5ccc(-c6cc(F)c7c(c6)C(=O)N(C(C(=O)Nc6nccs6)c6ncn8c6CCC8)C7)cc5)CC4)CC3)c2)C(=O)N1", "note": "(stereo not shown) [GT-06247, 2-(6,7-dihydro-5H-pyrrolo[1,2-c]imidazol-1-yl)-2-(6-(4-(4-(4-(3-((2,6-dioxopiperidin-3-yl)amino)benzyl)piperazin-1-yl)piperidin-1-yl)phenyl)-4-fluoro-1-oxoisoindolin-2-yl)-N-(thiazol-2-yl)acetamide]", "IC50": "500 to 1000"}
{"smiles": "O=C1CCN(c2ccc(CN3CCC(N4CCN(c5ccc6c(c5)nc(NC(=O)c5cccc(C(F)(F)F)c5)n6[C@H]5CC[C@@H](CO)CC5)CC4)CC3)cc2)C(=O)N1", "note": "[GT-05021, N-(5-(4-(1-(4-(2,4-dioxotetrahydropyrimidin-1(2H)-yl)benzyl)piperidin-4-yl)piperazin-1-yl)-1-((1s,4s)-4-(hydroxymethyl)cyclohexyl)-1H-benzo[d]imidazol-2-yl)-3-(trifluoromethyl)benzamide]", "IC50": "1000 to 1900"}
{"smiles": "CN(C)C(=O)c1cc2cnc(Nc3ccc(N4CCC(N(C)Cc5ccc(C6CCC(=O)NC6=O)cc5)CC4)cn3)nc2n1C1CCCC1", "note": "(stereo not shown) [GT-06490, 7-cyclopentyl-2-((5-(4-((4-(2,6-dioxopiperidin-3-yl)benzyl)(methyl)amino)piperidin-1-yl)pyridin-2-yl)amino)-N,N-dimethyl-7H-pyrrolo[2,3-d]pyrimidine-6-carboxamide]", "IC50": "500 to 1000"}
{"smiles": "O=C1CCN(c2cccc(CN3CCN(C4CCN(c5ccc(Nc6ncc7nc(Nc8ccccc8)n(C8CCCC8)c7n6)cc5)CC4)CC3)c2)C(=O)N1", "note": "[GT-05940, 1-(3-((4-(1-(4-((9-cyclopentyl-8-(phenylamino)-9H-purin-2-yl)amino)phenyl)piperidin-4-yl)piperazin-1-yl)methyl)phenyl)dihydropyrimidine-2,4(1H,3H)-dione]", "IC50": "500 to 1000"}
{"smiles": "CCc1cc2c(cc1N1CCC(N3CCN(Cc4ccc(N5CCC(=O)NC5=O)cc4F)CC3)CC1)C(C)(C)c1[nH]c3cc(C#N)ccc3c1C2=O", "note": "[GT-07309, 8-(4-(4-(4-(2,4-dioxotetrahydropyrimidin-1(2H)-yl)-2-fluorobenzyl)piperazin-1-yl)piperidin-1-yl)-9-ethyl-6,6-dimethyl-11-oxo-6,11-dihydro-5H-benzo[b]carbazole-3-carbonitrile]", "IC50": "500 to 1000"}
{"smiles": "COc1cc(N2CCC(N(C)Cc3ccc(C4CCC(=O)NC4=O)cn3)CC2)ccc1Nc1ncc(Cl)c(Nc2ccccc2P(C)(C)=O)n1", "note": "(stereo not shown) [GT-07698, 3-(6-(((1-(4-((5-chloro-4-((2-(dimethylphosphoryl)phenyl)amino)pyrimidin-2-yl)amino)-3-methoxyphenyl)piperidin-4-yl)(methyl)amino)methyl)pyridin-3-yl)piperidine-2,6-dione]", "IC50": "1000 to 1900"}
{"smiles": "CN(Cc1cncc(N2CCC(=O)NC2=O)c1)C1CCN(c2ccc(-c3cc(F)c4c(c3)C(=O)N(C(C(=O)Nc3nccs3)c3ncn5c3CCC5)C4)cc2)CC1", "note": "(stereo not shown) [GT-07384, 2-(6,7-dihydro-5H-pyrrolo[1,2-c]imidazol-1-yl)-2-(6-(4-(4-(((5-(2,4-dioxotetrahydropyrimidin-1(2H)-yl)pyridin-3-yl)methyl)(methyl)amino)piperidin-1-yl)phenyl)-4-fluoro-1-oxoisoindolin-2-yl)-N-(thiazol-2-yl)acetamide]", "IC50": "< 500"}
{"smiles": "NC(=O)c1ncc(N2CCCCC2)nc1Nc1ccc(C2CCN(Cc3ccc(C4CCC(=O)NC4=O)c(F)c3)CC2)cc1", "note": "(stereo not shown) [GT-04786, 3-((4-(1-(4-(2,6-dioxopiperidin-3-yl)-3-fluorobenzyl)piperidin-4-yl)phenyl)amino)-5-(piperidin-1-yl)pyrazine-2-carboxamide]", "IC50": "< 500"}
